Where a SMILES comes first, the peptide text is derived from it. Bridges are numbered along the chain shown (N, C = ends). [ ]: non-standard residue; d: D form. The star is where a group is joined. hPhe(3-Cl-4-CF3) = N[C@@H](CCc1ccc(C(F)(F)F)c(Cl)c1)C(=O)O; NPrPhe(4-CF3) = CCCN[C@@H](Cc1ccc(C(F)(F)F)cc1)C(=O)O; NMeGly(cPent) = CN[C@H](C(=O)O)C1CCCC1; NMeD = CN[C@@H](CC(=O)O)C(=O)O; NMeL = CN[C@@H](CC(C)C)C(=O)O; NMeNva = CCC[C@H](NC)C(=O)O; Morpholide = C1CN(*)CCO1; Ac4c = NC1(C(=O)O)CCC1; NPrGly = CCCNCC(=O)O; NEtG = CCNCC(=O)O; Sar = CNCC(=O)O

Experiment [1] deals with GDP-bound KRAS wild-type protein (Homo sapiens, UniProt P01116). Nature of the experiment: Binding to KRAS by surface plasmon resonance (SPR), dissociation constant KD. To be noted: Single Cycle Kinetics, 1:1 binding model. The gist of the method: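 SPR, 30°C: Avi-biotin RAS·GDP captured via Biotin CAPture (~100–300 RU); running buffer HBS pH 7.4, 1 mM DTT, 10 mM MgCl2, 0.01% Tween 20, 10 µM GDP, 4% DMSO. Single-cycle kinetics, 100 µL/min, 75 s injections; 1:1 model → KD.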
Sequence of GDP-bound KRAS wild-type protein (P01116 1-188 isoform P01116-2): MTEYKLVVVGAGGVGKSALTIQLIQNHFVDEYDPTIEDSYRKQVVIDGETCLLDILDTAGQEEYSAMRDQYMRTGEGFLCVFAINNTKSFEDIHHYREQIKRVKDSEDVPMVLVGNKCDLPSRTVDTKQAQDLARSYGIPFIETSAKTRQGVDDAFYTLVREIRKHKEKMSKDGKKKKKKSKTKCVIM

The target in experiment [2] is GDP-bound NRAS wild-type protein (Homo sapiens, UniProt P01111). Nature of the experiment: Binding to NRAS by surface plasmon resonance (SPR), KD and KD ratio to KRAS. An outline of the steps: (§1)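 Compound binding is evaluated by SPR single-cycle kinetics, with concentrations added intermittently from low to high for 75 s each. Target surfaces carry GDP-loaded biotinylated Avi-RAS at about 100–300 RU, regenerated after each cycle; temperature 30°C. A 1:1 binding model gives KD.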
Sequence of GDP-bound NRAS wild-type protein (P01111 whole entry): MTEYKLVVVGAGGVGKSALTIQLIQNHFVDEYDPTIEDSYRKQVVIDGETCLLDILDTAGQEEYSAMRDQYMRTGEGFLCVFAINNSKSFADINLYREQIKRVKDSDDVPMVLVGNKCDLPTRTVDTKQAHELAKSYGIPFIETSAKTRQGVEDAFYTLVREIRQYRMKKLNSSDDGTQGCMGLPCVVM
For orientation: Surface plasmon resonance follows binding to a sensor surface in real time, without labels.

The target in experiment [3] is HRAS wild-type protein (Homo sapiens, UniProt P01112). Nature of the experiment: Binding to HRAS by surface plasmon resonance (SPR), KD and KD ratio to KRAS. An outline of the steps: as §1
Sequence of HRAS wild-type protein (P01112 whole entry): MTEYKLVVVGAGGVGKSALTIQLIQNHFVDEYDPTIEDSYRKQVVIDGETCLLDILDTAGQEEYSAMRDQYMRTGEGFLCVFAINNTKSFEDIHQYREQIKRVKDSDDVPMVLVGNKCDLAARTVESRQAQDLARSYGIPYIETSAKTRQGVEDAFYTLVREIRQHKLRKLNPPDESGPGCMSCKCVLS
The test system of experiment [4] is human lung cancer strain NCI-H441. It is filed as cell-based. An outline of the steps: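 Proliferation was scored by […] measured after the reagent was added to cultures kept at 37°C in 5% carbon dioxide.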
[5] abbreviates: ratio of KD value for GDP-bound NRAS wild-type protein to KD value for KRAS (SPR).
The mark [6] stands for this setting: ratio of KD value for HRAS wild-type protein to KD value for KRAS (SPR).
Where [7] appears, read: ratio of the KD value with respect to GDP-bound NRAS wild-type protein to the KD value with respect to KRAS.
The mark [8] stands for this setting: ratio of the KD value with respect to HRAS wild-type protein to the KD value with respect to KRAS.

For `CCC[C@H]1C(=O)N[C@@H]([C@@H](C)CC)C(=O)N(C)CC(=O)N(C)[C@H]2C/C=C\CCN(C2=O)[C@@H](Cc2ccc(C)cc2)C(=O)N(C)CC(=O)N[C@@H](CCc2ccc(C(F)(F)F)c(OC)c2)C(=O)N2C[C@H](C)C[C@H]2C(=O)NC2(CC(C)(C)C2)C(=O)N(C)[C@@H](C2CCCC2)C(=O)N(C)[C@H](C(=O)N(C)C)CC(=O)N1C` [PP1890], in experiment [1], the Kd was 0.15 nM. In experiment [2] (setting [5]), the “NRAS /KRAS” value is “A (a compound having 10 or more and less than 20 is denoted as A)”. Also, the “HRAS /KRAS” value in experiment [3] (setting [6]) is “B (a compound having 3 or more and less than 10 is denoted as B)”. Besides, it took 3.6 nM to reach half-maximal inhibition in experiment [4] (IC50).
In the case of `CCC[C@H]1C(=O)N[C@@H]([C@@H](C)CC)C(=O)N(C)CC(=O)N(C)[C@H]2C/C=C\CCN(C2=O)[C@@H](Cc2ccc(C)cc2)C(=O)N(C)CC(=O)N[C@@H](CCc2ccc(C(F)(F)F)c(Cl)c2)C(=O)N2C[C@H](C)C[C@H]2C(=O)NC2(CC(C)(C)C2)C(=O)N(C)[C@@H](C2CCCC2)C(=O)N(C)[C@H](C(=O)N(C)CC)CC(=O)N1C` [PP1894], the Kd in experiment [1] stood at 0.2 nM. The “NRAS /KRAS” value in experiment [2] (setting [5]) was “A (a compound having 10 or more and less than 20 is denoted as A)”. Also, the “HRAS /KRAS” value in experiment [3] (setting [6]) is “A (a compound having 10 or more and less than 20 is denoted as A)”. Inhibition in experiment [4] was half-maximal at 15.9 nM (IC50).
`CC[C@H](C)[C@@H]1NC(=O)[C@H](CC2CC2)N(C)C(=O)C[C@@H](C(=O)N(C)CC)N(C)C(=O)[C@H](C2CCCC2)N(C)C(=O)C2(CC(C)(C)C2)NC(=O)[C@@H]2C[C@H](C)CN2C(=O)[C@H](CCc2ccc(C(F)(F)F)c(OC)c2)NC(=O)CN(C)C(=O)[C@H](Cc2ccc(C)cc2)N2CC/C=C\C[C@@H](C2=O)N(C)C(=O)CN(C)C1=O` [PP1899] showed a Kd in experiment [1] of 0.12 nM. Besides, in experiment [2] (setting [7]), the “NRAS /KRAS” value was “A (a compound having 10 or more and less than 20 is denoted as A)”. Moreover, the “HRAS /KRAS” value in experiment [3] (setting [8]) is “B (a compound having 3 or more and less than 10 is denoted as B)”. This compound also gave an IC50 in experiment [4] of 15.1 nM.
In experiment [1], `CC[C@H](C)[C@@H]1NC(=O)[C@H](CC2CC2)N(C)C(=O)C[C@@H](C(=O)N(C)C)N(C)C(=O)[C@H](C2CCCC2)N(C)C(=O)C2(CC(C)(C)C2)NC(=O)[C@@H]2C[C@@H](C)CN2C(=O)[C@H](CCc2ccc(C(F)(F)F)c(OC)c2)NC(=O)CN(C)C(=O)[C@H](Cc2ccc(C)cc2)N2CC/C=C\C[C@@H](C2=O)N(C)C(=O)CN(C)C1=O` [PP1901] returned a Kd of 0.098 nM. Moreover, the “NRAS /KRAS” value in experiment [2] (setting [7]) was “A (a compound having 10 or more and less than 20 is denoted as A)”. The “HRAS /KRAS” value in experiment [3] (setting [8]) was “B (a compound having 3 or more and less than 10 is denoted as B)”. In addition, the IC50 in experiment [4] was found to be 7.6 nM.
In experiment [1], `CC[C@H](C)[C@@H]1NC(=O)[C@H](CC2CC2)N(C)C(=O)C[C@@H](C(=O)N(C)CC)N(C)C(=O)[C@H](C2CCCC2)N(C)C(=O)C2(CC(C)(C)C2)NC(=O)[C@@H]2C[C@@H](C)CN2C(=O)[C@H](CCc2ccc(C(F)(F)F)c(OC)c2)NC(=O)CN(C)C(=O)[C@H](Cc2ccc(C)cc2)N2CC/C=C\C[C@@H](C2=O)N(C)C(=O)CN(C)C1=O` [PP1902] came in with a Kd of 0.2 nM. Further, in experiment [2] (setting [7]), the “NRAS /KRAS” value is “A (a compound having 10 or more and less than 20 is denoted as A)”. Also, in experiment [3] (setting [8]), the “HRAS /KRAS” value is “A (a compound having 10 or more and less than 20 is denoted as A)”. This compound also displayed an IC50 in experiment [4] of 12.5 nM.
The compound `CCO[C@@H]1C[C@H]2C(=O)NC3(CC(C)(C)C3)C(=O)N(C)[C@@H](C3CCCC3)C(=O)N(C)[C@H](C(=O)N(C)C)CC(=O)N(C)[C@@H](CC3CC3)C(=O)N[C@@H]([C@@H](C)CC)C(=O)N(C)CC(=O)N(C)[C@H]3C/C=C\CCN(C3=O)[C@@H](Cc3ccc(C)cc3)C(=O)N(C)CC(=O)N[C@@H](CCc3ccc(C(F)(F)F)c(OC)c3)C(=O)N2C1` [PP1903] had a Kd in experiment [1] of 0.063 nM. In experiment [2] (setting [7]), the “NRAS /KRAS” value was “A (a compound having 10 or more and less than 20 is denoted as A)”. For the same compound, the “HRAS /KRAS” value in experiment [3] (setting [8]) is “B (a compound having 3 or more and less than 10 is denoted as B)”. The midpoint of inhibition in experiment [4], the IC50, lay at 5.5 nM.
In experiment [1], `CCO[C@@H]1C[C@H]2C(=O)NC(C)(C)C(=O)N(C)[C@@H](C3CCCC3)C(=O)N(C)[C@H](C(=O)N(C)CC)CC(=O)N(C)[C@@H](CC(C)C)C(=O)N[C@@H]([C@@H](C)CC)C(=O)N(C)CC(=O)N(C)[C@H]3C/C=C\CCN(C3=O)[C@@H](Cc3ccc(C(F)(F)F)cc3)C(=O)N(C)CC(=O)N[C@@H](CCc3cc(F)c(C(F)(F)F)c(F)c3)C(=O)N2C1` [PP1937] gave a Kd of 0.31 nM. The “NRAS /KRAS” value in experiment [2] (setting [7]) is “A (a compound having 10 or more and less than 20 is denoted as A)”. The “HRAS /KRAS” value in experiment [3] (setting [8]) is “A (a compound having 10 or more and less than 20 is denoted as A)”. Moreover, 6.8 nM corresponded to half-maximal inhibition in experiment [4] (IC50).
Take `CCCN(C)C(=O)[C@@H]1CC(=O)N(C)[C@@H](CC(C)C)C(=O)N[C@@H]([C@@H](C)CC)C(=O)N(C)CC(=O)N(C)[C@H]2C/C=C\CCN(C2=O)[C@@H](Cc2ccc(C(F)(F)F)cc2)C(=O)N(C)CC(=O)N[C@@H](CCc2cc(F)c(C(F)(F)F)c(F)c2)C(=O)N2C[C@H](OCC)C[C@H]2C(=O)NC2(COC2)C(=O)N(C)[C@@H](C2CCCC2)C(=O)N1C` [PP1938]: in experiment [1], binding was put at a Kd of 0.34 nM. The “NRAS /KRAS” value in experiment [2] (setting [7]) is reported as “AA (a compound having 20 or more is denoted as AA)”. For the same compound, the “HRAS /KRAS” value in experiment [3] (setting [8]) is “A (a compound having 10 or more and less than 20 is denoted as A)”. In experiment [4], the IC50 was 34.6 nM.
With `CCCN1C(=O)CN(CC)C(=O)CN(C)C(=O)[C@H]([C@@H](C)CC)NC(=O)[C@H](CC(C)C)N(C)C(=O)C[C@@H](C(=O)N2CCOCC2)N(C)C(=O)[C@H](C2CCCC2)N(C)C(=O)C2(CCC2)NC(=O)[C@@H]2CCCN2C(=O)[C@H](CCc2ccc(C(F)(F)F)c(Cl)c2)NC(=O)CN(C)C(=O)[C@@H]1Cc1ccc(C(F)(F)F)cc1` [PP1948] ([NMeL]I[Sar][NEtG][NPrPhe(4-CF3)][Sar][hPhe(3-Cl-4-CF3)]P[Ac4c][NMeGly(cPent)][NMeD]-Morpholide; lactam N-11), the Kd in experiment [1] stood at 0.41 nM. Moreover, the “NRAS /KRAS” value in experiment [2] (setting [7]) is “C (A compound having a KD ratio of 0.1 or more and less than 3 is denoted as C)”. Also, the “HRAS /KRAS” value in experiment [3] (setting [8]) was “C (A compound having a KD ratio of 0.1 or more and less than 3 is denoted as C)”. Also, half-maximal inhibition in experiment [4] (IC50) was put at 16.2 nM.
Regarding `CCC[C@H]1C(=O)N[C@@H]([C@@H](C)CC)C(=O)N(C)CC(=O)N(CCC)CC(=O)N(CCC)[C@@H](Cc2ccc(C(F)(F)F)cc2)C(=O)N(C)CC(=O)N[C@@H](CCc2ccc(C(F)(F)F)c(Cl)c2)C(=O)N2CCC[C@H]2C(=O)NC2(CCC2)C(=O)N(C)[C@@H](C2CCCC2)C(=O)N(C)[C@H](C(=O)N2CCOCC2)CC(=O)N1C` [PP1949] ([NMeNva]I[Sar][NPrGly][NPrPhe(4-CF3)][Sar][hPhe(3-Cl-4-CF3)]P[Ac4c][NMeGly(cPent)][NMeD]-Morpholide; lactam N-11), in experiment [1], the Kd amounted to 0.92 nM. Also, the “NRAS /KRAS” value in experiment [2] (setting [7]) is “C (A compound having a KD ratio of 0.1 or more and less than 3 is denoted as C)”. Besides, in experiment [3] (setting [8]), the “HRAS /KRAS” value was “C (A compound having a KD ratio of 0.1 or more and less than 3 is denoted as C)”. Also, the IC50 in experiment [4] was 9.3 nM.

For orientation: Kd means a measure of binding affinity in units of concentration. A low value points to tighter binding. The IC50 is the concentration that gives 50% inhibition. Read a high IC50 as weaker potency.

These data come from patent EP4603105A1, “PHARMACEUTICAL COMPOSITION CONTAINING CYCLIC COMPOUND HAVING SELECTIVE KRAS INHIBITORY EFFECT AGAINST HRAS AND NRAS” (CHUGAI SEIYAKU KABUSHIKI KAISHA, priority 2022, dated 2024).
